Activity calls are given as the source filed them.
Key:
Dihydrofolate reductase = biological target: T1, Dihydrofolate reductase (Bos taurus, UniProt P00376); test: Inhibition of bovine liver DHFR
T1 sequence (P00376 whole entry): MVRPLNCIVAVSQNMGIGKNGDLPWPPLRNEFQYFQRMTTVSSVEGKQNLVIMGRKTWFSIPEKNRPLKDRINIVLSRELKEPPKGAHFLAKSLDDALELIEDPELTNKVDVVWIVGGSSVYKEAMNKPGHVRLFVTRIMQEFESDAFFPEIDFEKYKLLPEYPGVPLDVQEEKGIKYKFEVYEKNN

Staphylococcus aureus [1] = test: Antimicrobial activity against Staphylococcus aureus assessed as inhibition zone at 200 ug/disk after 24 hrs by disc-diffusion method; assay type: functional; conditions: read-out: IZ
Bacillus subtilis [2] = test: Antimicrobial activity against Bacillus subtilis assessed as inhibition zone at 200 ug/disk after 24 hrs by disc-diffusion method; assay type: functional; conditions: read-out: IZ
Escherichia coli = test: Antimicrobial activity against Escherichia coli assessed as inhibition zone at 200 ug/disk after 24 hrs by disc-diffusion method; assay type: functional; conditions: read-out: IZ
Pseudomonas aeruginosa = test: Antimicrobial activity against Pseudomonas aeruginosa assessed as inhibition zone at 200 ug/disk after 24 hrs by disc-diffusion method; assay type: functional; conditions: read-out: IZ
Candida albicans = test: Antimicrobial activity against Candida albicans assessed as inhibition zone at 200 ug/disk after 24 hrs by disc-diffusion method; assay type: functional; conditions: read-out: IZ
Staphylococcus aureus [3] = test: Antimicrobial activity against Staphylococcus aureus assessed as inhibition of visible growth after 24 hrs by disc-diffusion method; assay type: functional, organism-based
Bacillus subtilis [4] = test: Antimicrobial activity against Bacillus subtilis assessed as inhibition of visible growth after 24 hrs by disc-diffusion method; assay type: functional, organism-based
CCRF-CEM = test: Growth inhibition of human CCRF-CEM cells at 10 uM after 48 hrs; assay type: functional
HL-60(TB) = test: Growth inhibition of human HL-60(TB) cells at 10 uM after 48 hrs; assay type: functional
K562 = test: Growth inhibition of human K562 cells at 10 uM after 48 hrs; assay type: functional
MOLT-4 = test: Growth inhibition of human MOLT4 cells at 10 uM after 48 hrs; assay type: functional
RPMI-8226 = test: Growth inhibition of human RPMI8226 cells at 10 uM after 48 hrs; assay type: functional
SR = test: Growth inhibition of human SR cells at 10 uM after 48 hrs; assay type: functional
A549 = test: Growth inhibition of human A549 cells at 10 uM after 48 hrs; assay type: functional
HOP-92 = test: Growth inhibition of human HOP92 cells at 10 uM after 48 hrs; assay type: functional
NCI-H226 = test: Growth inhibition of human NCI-H226 cells at 10 uM after 48 hrs; assay type: functional
NCI-H23 = test: Growth inhibition of human NCI-H23 cells at 10 uM after 48 hrs; assay type: functional
NCI-H460 = test: Growth inhibition of human NCI-H460 cells at 10 uM after 48 hrs; assay type: functional
NCI-H522 = test: Growth inhibition of human NCI-H522 cells at 10 uM after 48 hrs; assay type: functional
COLO 205 = test: Growth inhibition of human COLO205 cells at 10 uM after 48 hrs; assay type: functional
HCC 2998 = test: Growth inhibition of human HCC2998 cells at 10 uM after 48 hrs; assay type: functional
HCT-116 = test: Growth inhibition of human HCT116 cells at 10 uM after 48 hrs; assay type: functional
HCT-15 = test: Growth inhibition of human HCT15 cells at 10 uM after 48 hrs; assay type: functional
HT-29 = test: Growth inhibition of human HT-29 cells at 10 uM after 48 hrs; assay type: functional
KM12 = test: Growth inhibition of human KM12 cells at 10 uM after 48 hrs; assay type: functional
SW-620 = test: Growth inhibition of human SW620 cells at 10 uM after 48 hrs; assay type: functional
SF-268 = test: Growth inhibition of human SF268 cells at 10 uM after 48 hrs; assay type: functional
SF-295 = test: Growth inhibition of human SF295 cells at 10 uM after 48 hrs; assay type: functional
SF-539 = test: Growth inhibition of human SF539 cells at 10 uM after 48 hrs; assay type: functional
SNB-19 = test: Growth inhibition of human SNB19 cells at 10 uM after 48 hrs; assay type: functional
SNB-75 = test: Growth inhibition of human SNB75 cells at 10 uM after 48 hrs; assay type: functional
U-251 = test: Growth inhibition of human U251 cells at 10 uM after 48 hrs; assay type: functional
LOX IMVI = test: Growth inhibition of human LOXIMVI cells at 10 uM after 48 hrs; assay type: functional
Malme-3M = test: Growth inhibition of human MALME-3M cells at 10 uM after 48 hrs; assay type: functional
M14 = test: Growth inhibition of human M14 cells at 10 uM after 48 hrs; assay type: functional
MDA-MB-435 = test: Growth inhibition of human MDA-MB-435 cells at 10 uM after 48 hrs; assay type: functional
SK-MEL-5 = test: Growth inhibition of human SK-MEL-5 cells at 10 uM after 48 hrs; assay type: functional
UACC-257 = test: Growth inhibition of human UACC257 cells at 10 uM after 48 hrs; assay type: functional
UACC-62 = test: Growth inhibition of human UACC62 cells at 10 uM after 48 hrs; assay type: functional
OVCAR-3 = test: Growth inhibition of human OVCAR3 cells at 10 uM after 48 hrs; assay type: functional
OVCAR-4 = test: Growth inhibition of human OVCAR4 cells at 10 uM after 48 hrs; assay type: functional
OVCAR-5 = test: Growth inhibition of human OVCAR5 cells at 10 uM after 48 hrs; assay type: functional
OVCAR-8 = test: Growth inhibition of human OVCAR8 cells at 10 uM after 48 hrs; assay type: functional
NCI/ADR-RES = test: Growth inhibition of human NCI-ADR-RES cells at 10 uM after 48 hrs; assay type: functional
786-0 = test: Growth inhibition of human 786-0 cells at 10 uM after 48 hrs; assay type: functional
A498 = test: Growth inhibition of human A498 cells at 10 uM after 48 hrs; assay type: functional
ACHN = test: Growth inhibition of human ACHN cells at 10 uM after 48 hrs; assay type: functional
CAKI-1 = test: Growth inhibition of human CAKI-1 cells at 10 uM after 48 hrs; assay type: functional
RXF 393 = test: Growth inhibition of human RXF393 cells at 10 uM after 48 hrs; assay type: functional
SN12C = test: Growth inhibition of human SN12C cells at 10 uM after 48 hrs; assay type: functional
TK-10 = test: Growth inhibition of human TK10 cells at 10 uM after 48 hrs; assay type: functional
UO-31 = test: Growth inhibition of human UO31 cells at 10 uM after 48 hrs; assay type: functional
PC-3 = test: Growth inhibition of human PC3 cells at 10 uM after 48 hrs; assay type: functional
MCF7 = test: Growth inhibition of human MCF7 cells at 10 uM after 48 hrs; assay type: functional
MDA-MB-231 = test: Growth inhibition of human MDA-MB-231 cells at 10 uM after 48 hrs; assay type: functional
Hs-578T = test: Growth inhibition of human Hs 578T cells at 10 uM after 48 hrs; assay type: functional
BT-549 = test: Growth inhibition of human BT549 cells at 10 uM after 48 hrs; assay type: functional
T47D = test: Growth inhibition of human T47D cells at 10 uM after 48 hrs; assay type: functional
MDA-MB-468 = test: Growth inhibition of human MDA-MB-468 cells at 10 uM after 48 hrs; assay type: functional

Cc1ccc2nc(Sc3sc(N)nc3C)n(-c3ccc(Oc4ccccc4)cc3)c(=O)c2c1
26 mm: zone of inhibition at 200 µg/disc (Staphylococcus aureus [1])
inactive: growth inhibition (GI) (CCRF-CEM) | growth inhibition (GI) (HL-60(TB)) | growth inhibition (GI) (K562) | growth inhibition (GI) (MOLT-4) | growth inhibition (GI) (RPMI-8226) | growth inhibition (GI) (SR) | growth inhibition (GI) (A549) | growth inhibition (GI) (HOP-92) | growth inhibition (GI) (NCI-H226) | growth inhibition (GI) (NCI-H23) | growth inhibition (GI) (NCI-H460) | growth inhibition (GI) (NCI-H522) | growth inhibition (GI) (COLO 205) | growth inhibition (GI) (HCC 2998) | growth inhibition (GI) (HCT-116) | growth inhibition (GI) (HCT-15) | growth inhibition (GI) (HT-29) | growth inhibition (GI) (KM12) | growth inhibition (GI) (SW-620) | growth inhibition (GI) (SF-268) | growth inhibition (GI) (SF-295) | growth inhibition (GI) (SF-539) | growth inhibition (GI) (SNB-19) | growth inhibition (GI) (SNB-75) | growth inhibition (GI) (U-251) | growth inhibition (GI) (LOX IMVI) | growth inhibition (GI) (Malme-3M) | growth inhibition (GI) (M14) | growth inhibition (GI) (MDA-MB-435) | growth inhibition (GI) (SK-MEL-5) | growth inhibition (GI) (UACC-257) | growth inhibition (GI) (UACC-62) | growth inhibition (GI) (OVCAR-3) | growth inhibition (GI) (OVCAR-4) | growth inhibition (GI) (OVCAR-5) | growth inhibition (GI) (OVCAR-8) | growth inhibition (GI) (NCI/ADR-RES) | growth inhibition (GI) (786-0) | growth inhibition (GI) (A498) | growth inhibition (GI) (ACHN) | growth inhibition (GI) (CAKI-1) | growth inhibition (GI) (RXF 393) | growth inhibition (GI) (SN12C) | growth inhibition (GI) (TK-10) | growth inhibition (GI) (UO-31) | growth inhibition (GI) (PC-3) | growth inhibition (GI) (MCF7) | growth inhibition (GI) (MDA-MB-231) | growth inhibition (GI) (Hs-578T) | growth inhibition (GI) (BT-549) | growth inhibition (GI) (T47D) | growth inhibition (GI) (MDA-MB-468)
2 µM: IC50 (Dihydrofolate reductase)
22 mm: zone of inhibition at 200 µg/disc (Bacillus subtilis [2])
8 mm: zone of inhibition at 200 µg/disc (Pseudomonas aeruginosa) | zone of inhibition at 200 µg/disc (Candida albicans)
active: Activity (Staphylococcus aureus [3]) | Activity (Bacillus subtilis [4])
14 mm: zone of inhibition at 200 µg/disc (Escherichia coli)

COc1cc2nc(Sc3sc(N)nc3C)n(Cc3ccccc3)c(=O)c2cc1OC
active: Activity (Staphylococcus aureus [3]) | Activity (Bacillus subtilis [4])
inactive: growth inhibition (GI) (CCRF-CEM) | growth inhibition (GI) (HL-60(TB)) | growth inhibition (GI) (K562) | growth inhibition (GI) (MOLT-4) | growth inhibition (GI) (RPMI-8226) | growth inhibition (GI) (SR) | growth inhibition (GI) (A549) | growth inhibition (GI) (HOP-92) | growth inhibition (GI) (NCI-H226) | growth inhibition (GI) (NCI-H23) | growth inhibition (GI) (NCI-H460) | growth inhibition (GI) (NCI-H522) | growth inhibition (GI) (COLO 205) | growth inhibition (GI) (HCC 2998) | growth inhibition (GI) (HCT-116) | growth inhibition (GI) (HCT-15) | growth inhibition (GI) (HT-29) | growth inhibition (GI) (KM12) | growth inhibition (GI) (SW-620) | growth inhibition (GI) (SF-268) | growth inhibition (GI) (SF-295) | growth inhibition (GI) (SF-539) | growth inhibition (GI) (SNB-19) | growth inhibition (GI) (SNB-75) | growth inhibition (GI) (U-251) | growth inhibition (GI) (LOX IMVI) | growth inhibition (GI) (Malme-3M) | growth inhibition (GI) (M14) | growth inhibition (GI) (MDA-MB-435) | growth inhibition (GI) (SK-MEL-5) | growth inhibition (GI) (UACC-257) | growth inhibition (GI) (UACC-62) | growth inhibition (GI) (OVCAR-3) | growth inhibition (GI) (OVCAR-4) | growth inhibition (GI) (OVCAR-5) | growth inhibition (GI) (OVCAR-8) | growth inhibition (GI) (NCI/ADR-RES) | growth inhibition (GI) (786-0) | growth inhibition (GI) (A498) | growth inhibition (GI) (ACHN) | growth inhibition (GI) (CAKI-1) | growth inhibition (GI) (RXF 393) | growth inhibition (GI) (SN12C) | growth inhibition (GI) (TK-10) | growth inhibition (GI) (UO-31) | growth inhibition (GI) (PC-3) | growth inhibition (GI) (MCF7) | growth inhibition (GI) (MDA-MB-231) | growth inhibition (GI) (Hs-578T) | growth inhibition (GI) (BT-549) | growth inhibition (GI) (T47D) | growth inhibition (GI) (MDA-MB-468)
20 mm: zone of inhibition at 200 µg/disc (Staphylococcus aureus [1])
8 mm: zone of inhibition at 200 µg/disc (Escherichia coli) | zone of inhibition at 200 µg/disc (Pseudomonas aeruginosa) | zone of inhibition at 200 µg/disc (Candida albicans)
24 mm: zone of inhibition at 200 µg/disc (Bacillus subtilis [2])
6 µM: IC50 (Dihydrofolate reductase)

From ChEMBL document CHEMBL3352542, “Synthesis, biological evaluation and molecular modeling study of 2-(1,3,4-thiadiazolyl-thio and 4-methyl-thiazolyl-thio)-quinazolin-4-ones as a new class of DHFR inhibitors” (Bioorg Med Chem Lett, 2014)
